Assay results: patent US6355799B1, “Substituted benzene compounds, process for their preparation, and herbicidal and defoliant compositions containing them” (ISK Americas Incorporated, priority 1997, dated 2002)

Key:
Assay type in all cases: in vivo
[1] = system: upland rice (Oryza sp., var. Tebonnet, RICE); assay: Pre-emerge test, crop safety; details: rated 14 days after application, 0 = no damage, 100 = complete death
Outline: (§1)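 Compounds in acetone were track-sprayed at 187 l/ha, 15–1000 g ai/ha, onto sandy loam pots. Pre-emerge seeds were sown one day before spraying, with surface watering afterwards. Post-emerge plants were at the 2–3 leaf stage and sprayed with 0.25% v/v non-ionic surfactant. Injury was rated 0–100 at 14 days.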

[2] = system: field corn (Zea mays L., var. Dekalb 535, CORN); assay: Pre-emerge test, crop safety; details: rated 14 days after application, 0 = no damage, 100 = complete death
Outline: as §1

[3] = system: large crabgrass (Digitaria sanguinalis, DIGSA); assay: Post-emerge test, greenhouse herbicide activity screening; details: post-emerge, 14 days after application, rating scale 0-100
Outline: (§2)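 Herbicidal damage is scored 0 (none) to 100 (complete plant death) two weeks after a simulated field spray. Rates span 15–1000 g ai/ha, delivered in acetone at 187 l/ha. For post-emergence treatments, plants have 2–3 leaves and the spray carries 0.25% v/v non-ionic surfactant.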

[4] = system: johnsongrass (Sorghum halepense, SORHA); assay: as above; details: post-emerge, 14 days after application, rating scale 0-100
Outline: as §2

[5] = system: sicklepod (Cassia obtusifolia, CASOB); assay: as above; details: post-emerge, 14 days after application, rating scale 0-100
Outline: as §2

[6] = system: barnyardgrass (Echinochloa crus-galli, ECHCG); assay: as above; details: post-emerge, 14 days after application, rating scale 0-100
Outline: as §2

[7] = system: common ragweed (Ambrosia artemisizfolia L., AMBEL); assay: as above; details: post-emerge, 14 days after application, rating scale 0-100
Outline: as §2

[8] = system: ivyleaf morningglory (Ipomoea hederacea, IPOHE); assay: as above; details: post-emerge, 14 days after application, rating scale 0-100
Outline: as §2

[9] = system: velvetleaf (Abutilon theophrasti, ABUTH); assay: as above; details: post-emerge, 14 days after application, rating scale 0-100
Outline: as §2

[10] = system: lambsquarters (Chenopodium album, CHEAL); assay: as above; details: post-emerge, 14 days after application, rating scale 0-100
Outline: as §2

[11] = system: redroot pigweed (Amaranthus retroflexus, AMARE); assay: as above; details: post-emerge, 14 days after application, rating scale 0-100
Outline: as §2

[12] = system: upland rice (Oryza sp., var. Tebonnet, RICE); assay: Post-emerge test, crop safety; details: post-emerge, 14 days after application, rating scale 0-100
Outline: (§3)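 Plants grown in 10 cm pots of sandy loam mix received acetone-dissolved compounds through a moving flat-fan nozzle. Doses ranged from 15 to 1000 g ai/ha. Pre-emerge pots were seeded one day earlier, post-emerge pots 8–21 days earlier. Fourteen days on, each pot was graded 0–100 for damage.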

[13] = system: field corn (Zea mays L., var. Dekalb 535, CORN); assay: Post-emerge test, crop safety; details: post-emerge, 14 days after application, rating scale 0-100
Outline: as §3

[14] = system: large crabgrass (Digitaria sanguinalis, DIGSA); assay: Pre-emerge test, greenhouse herbicide activity screening; details: rated 14 days after application, 0 = no damage, 100 = complete death
Outline: (§4)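 Rating: 0–100 visual injury, 14 DAA. Application: acetone, 187 l/ha, 15–1000 g ai/ha, flat-fan track sprayer with nozzle 40–45 cm above soil or canopy. Post-emerge runs used 0.25% v/v surfactant on 2–3 leaf plants.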

[15] = system: johnsongrass (Sorghum halepense, SORHA); assay: as above; details: rated 14 days after application, 0 = no damage, 100 = complete death
Outline: as §4

[16] = system: sicklepod (Cassia obtusifolia, CASOB); assay: as above; details: rated 14 days after application, 0 = no damage, 100 = complete death
Outline: as §4

[17] = system: barnyardgrass (Echinochloa crus-galli, ECHCG); assay: as above; details: rated 14 days after application, 0 = no damage, 100 = complete death
Outline: as §4

[18] = system: green foxtail (Setaria viridis, SETVI); assay: as above; details: rated 14 days after application, 0 = no damage, 100 = complete death
Outline: as §4

[19] = system: common ragweed (Ambrosia artemisizfolia L., AMBEL); assay: as above; details: rated 14 days after application, 0 = no damage, 100 = complete death
Outline: as §4

[20] = system: ivyleaf morningglory (Ipomoea hederacea, IPOHE); assay: as above; details: rated 14 days after application, 0 = no damage, 100 = complete death
Outline: as §4

[21] = system: velvetleaf (Abutilon theophrasti, ABUTH); assay: as above; details: rated 14 days after application, 0 = no damage, 100 = complete death
Outline: as §4

[22] = system: lambsquarters (Chenopodium album, CHEAL); assay: as above; details: rated 14 days after application, 0 = no damage, 100 = complete death
Outline: as §4

[23] = system: redroot pigweed (Amaranthus retroflexus, AMARE); assay: as above; details: rated 14 days after application, 0 = no damage, 100 = complete death
Outline: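 Compounds in acetone were track-sprayed at 15-1000 g ai/ha (187 l/ha) on sandy loam pots: pre-emerge one day after seeding, post-emerge at 2-3 leaf stage with 0.25% v/v non-ionic surfactant. Phytotoxicity was rated 14 days later on a 0 (no damage) to 100 (complete death) scale.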

COc1c(Cl)cc(F)c(-n2c(=O)cc(C(F)(F)F)n(C)c2=O)c1NC(=O)c1ccc(OC(F)(F)F)cc1 [2-72]
Pre-emerge phytotoxicity rating (0-100), crop damage, RICE ([1]; 63 g ai/ha): 10 | Pre-emerge phytotoxicity rating (0-100), crop damage, RICE ([1]; 250 g ai/ha): 40 | Pre-emerge phytotoxicity rating (0-100), crop damage, CORN ([2]; 63 g ai/ha): 0 | Pre-emerge phytotoxicity rating (0-100), crop damage, CORN ([2]; 250 g ai/ha): 5 | phytotoxicity rating DIGSA ([3]; 63 g ai/ha): 0 | phytotoxicity rating DIGSA ([3]; 250 g ai/ha): 0 | phytotoxicity rating SORHA ([4]; 63 g ai/ha): 0 | phytotoxicity rating SORHA ([4]; 250 g ai/ha): 0 | phytotoxicity rating CASOB ([5]; 63 g ai/ha): 70 | phytotoxicity rating CASOB ([5]; 250 g ai/ha): 95 | phytotoxicity rating ECHCG ([6]; 63 g ai/ha): 0 | phytotoxicity rating ECHCG ([6]; 250 g ai/ha): 0 | phytotoxicity rating AMBEL ([7]; 63 g ai/ha): 70 | phytotoxicity rating AMBEL ([7]; 250 g ai/ha): 60 | phytotoxicity rating IPOHE ([8]; 63 g ai/ha): 50 | phytotoxicity rating IPOHE ([8]; 250 g ai/ha): 60 | phytotoxicity rating ABUTH ([9]; 63 g ai/ha): 100 | phytotoxicity rating ABUTH ([9]; 250 g ai/ha): 100 | phytotoxicity rating CHEAL ([10]; 63 g ai/ha): 70 | phytotoxicity rating CHEAL ([10]; 250 g ai/ha): 80 | phytotoxicity rating AMARE ([11]; 63 g ai/ha): 70 | phytotoxicity rating AMARE ([11]; 250 g ai/ha): 90 | phytotoxicity rating RICE ([12]; 63 g ai/ha): 0 | phytotoxicity rating RICE ([12]; 250 g ai/ha): 20 | phytotoxicity rating CORN ([13]; 63 g ai/ha): 0 | phytotoxicity rating CORN ([13]; 250 g ai/ha): 10 | Pre-emerge Herbicidal Activity, phytotoxicity rating (0-100), DIGSA ([14]; 63 g ai/ha): 30 | Pre-emerge Herbicidal Activity, phytotoxicity rating (0-100), DIGSA ([14]; 250 g ai/ha): 100 | Pre-emerge Herbicidal Activity, phytotoxicity rating (0-100), SORHA ([15]; 63 g ai/ha): 0 | Pre-emerge Herbicidal Activity, phytotoxicity rating (0-100), SORHA ([15]; 250 g ai/ha): 50 | Pre-emerge Herbicidal Activity, phytotoxicity rating (0-100), CASOB ([16]; 63 g ai/ha): 30 | Pre-emerge Herbicidal Activity, phytotoxicity rating (0-100), CASOB ([16]; 250 g ai/ha): 90 | Pre-emerge Herbicidal Activity, phytotoxicity rating (0-100), ECHCG ([17]; 63 g ai/ha): 0 | Pre-emerge Herbicidal Activity, phytotoxicity rating (0-100), ECHCG ([17]; 250 g ai/ha): 50 | Pre-emerge Herbicidal Activity, phytotoxicity rating (0-100), SETVI ([18]; 63 g ai/ha): 60 | Pre-emerge Herbicidal Activity, phytotoxicity rating (0-100), SETVI ([18]; 250 g ai/ha): 100 | Pre-emerge Herbicidal Activity, phytotoxicity rating (0-100), AMBEL ([19]; 63 g ai/ha): 0 | Pre-emerge Herbicidal Activity, phytotoxicity rating (0-100), AMBEL ([19]; 250 g ai/ha): 50 | Pre-emerge Herbicidal Activity, phytotoxicity rating (0-100), IPOHE ([20]; 63 g ai/ha): 20 | Pre-emerge Herbicidal Activity, phytotoxicity rating (0-100), IPOHE ([20]; 250 g ai/ha): 20 | Pre-emerge Herbicidal Activity, phytotoxicity rating (0-100), ABUTH ([21]; 63 g ai/ha): 100 | Pre-emerge Herbicidal Activity, phytotoxicity rating (0-100), ABUTH ([21]; 250 g ai/ha): 100 | Pre-emerge Herbicidal Activity, phytotoxicity rating (0-100), CHEAL ([22]; 63 g ai/ha): 100 | Pre-emerge Herbicidal Activity, phytotoxicity rating (0-100), CHEAL ([22]; 250 g ai/ha): 100 | Pre-emerge Herbicidal Activity, phytotoxicity rating (0-100), AMARE ([23]; 63 g ai/ha): 100 | Pre-emerge Herbicidal Activity, phytotoxicity rating (0-100), AMARE ([23]; 250 g ai/ha): 100

COc1c(Cl)cc(F)c(-n2c(=O)cc(C(F)(F)F)n(C)c2=O)c1NC(=O)c1cccnc1 [2-98]
Pre-emerge phytotoxicity rating (0-100), crop damage, RICE ([1]; 63 g ai/ha): 60 | Pre-emerge phytotoxicity rating (0-100), crop damage, RICE ([1]; 250 g ai/ha): 90 | Pre-emerge phytotoxicity rating (0-100), crop damage, CORN ([2]; 63 g ai/ha): 70 | Pre-emerge phytotoxicity rating (0-100), crop damage, CORN ([2]; 250 g ai/ha): 90 | phytotoxicity rating DIGSA ([3]; 63 g ai/ha): 0 | phytotoxicity rating DIGSA ([3]; 250 g ai/ha): 50 | phytotoxicity rating SORHA ([4]; 63 g ai/ha): 0 | phytotoxicity rating SORHA ([4]; 250 g ai/ha): 90 | phytotoxicity rating CASOB ([5]; 63 g ai/ha): 100 | phytotoxicity rating CASOB ([5]; 250 g ai/ha): 100 | phytotoxicity rating ECHCG ([6]; 63 g ai/ha): 0 | phytotoxicity rating ECHCG ([6]; 250 g ai/ha): 20 | phytotoxicity rating AMBEL ([7]; 63 g ai/ha): 80 | phytotoxicity rating AMBEL ([7]; 250 g ai/ha): 100 | phytotoxicity rating IPOHE ([8]; 63 g ai/ha): 100 | phytotoxicity rating IPOHE ([8]; 250 g ai/ha): 100 | phytotoxicity rating ABUTH ([9]; 63 g ai/ha): 100 | phytotoxicity rating ABUTH ([9]; 250 g ai/ha): 100 | phytotoxicity rating CHEAL ([10]; 63 g ai/ha): 70 | phytotoxicity rating CHEAL ([10]; 250 g ai/ha): 90 | phytotoxicity rating AMARE ([11]; 63 g ai/ha): 75 | phytotoxicity rating AMARE ([11]; 250 g ai/ha): 100 | phytotoxicity rating RICE ([12]; 63 g ai/ha): 40 | phytotoxicity rating RICE ([12]; 250 g ai/ha): 90 | phytotoxicity rating CORN ([13]; 63 g ai/ha): 20 | phytotoxicity rating CORN ([13]; 250 g ai/ha): 90 | Pre-emerge Herbicidal Activity, phytotoxicity rating (0-100), DIGSA ([14]; 63 g ai/ha): 40 | Pre-emerge Herbicidal Activity, phytotoxicity rating (0-100), DIGSA ([14]; 250 g ai/ha): 95 | Pre-emerge Herbicidal Activity, phytotoxicity rating (0-100), SORHA ([15]; 63 g ai/ha): 30 | Pre-emerge Herbicidal Activity, phytotoxicity rating (0-100), SORHA ([15]; 250 g ai/ha): 95 | Pre-emerge Herbicidal Activity, phytotoxicity rating (0-100), CASOB ([16]; 63 g ai/ha): 100 | Pre-emerge Herbicidal Activity, phytotoxicity rating (0-100), CASOB ([16]; 250 g ai/ha): 100 | Pre-emerge Herbicidal Activity, phytotoxicity rating (0-100), ECHCG ([17]; 63 g ai/ha): 30 | Pre-emerge Herbicidal Activity, phytotoxicity rating (0-100), ECHCG ([17]; 250 g ai/ha): 100 | Pre-emerge Herbicidal Activity, phytotoxicity rating (0-100), SETVI ([18]; 63 g ai/ha): 80 | Pre-emerge Herbicidal Activity, phytotoxicity rating (0-100), SETVI ([18]; 250 g ai/ha): 100 | Pre-emerge Herbicidal Activity, phytotoxicity rating (0-100), AMBEL ([19]; 63 g ai/ha): 100 | Pre-emerge Herbicidal Activity, phytotoxicity rating (0-100), AMBEL ([19]; 250 g ai/ha): 100 | Pre-emerge Herbicidal Activity, phytotoxicity rating (0-100), IPOHE ([20]; 63 g ai/ha): 100 | Pre-emerge Herbicidal Activity, phytotoxicity rating (0-100), IPOHE ([20]; 250 g ai/ha): 100 | Pre-emerge Herbicidal Activity, phytotoxicity rating (0-100), ABUTH ([21]; 63 g ai/ha): 100 | Pre-emerge Herbicidal Activity, phytotoxicity rating (0-100), ABUTH ([21]; 250 g ai/ha): 100 | Pre-emerge Herbicidal Activity, phytotoxicity rating (0-100), CHEAL ([22]; 63 g ai/ha): 100 | Pre-emerge Herbicidal Activity, phytotoxicity rating (0-100), CHEAL ([22]; 250 g ai/ha): 100 | Pre-emerge Herbicidal Activity, phytotoxicity rating (0-100), AMARE ([23]; 63 g ai/ha): 100 | Pre-emerge Herbicidal Activity, phytotoxicity rating (0-100), AMARE ([23]; 250 g ai/ha): 100
